Tested on: Plasmodium berghei
Test: Luciferase/luciferin-expressing antifolate-resistant parasites were used to infect a culture of HepG2 cells that were pre-incubated with compounds. Infected hepatocytes emit light due to the luciferase reaction. Assay results are presented as the percent inhibition of light emission compared to control. […]
Type: functional
Conditions: sporozoite; for IC90: read-out: LUCIFERASE INFECTION ASSAY - IC90
[1] = read-out: LUCIFERASE INFECTION ASSAY - IC50

Row | Structure (SMILES) | IC90 | IC50 [1] | other results
1 | Cc1ccnc(NC(=O)Cc2cnn(-c3ccccc3)c2)c1 | 9.95 µM |  | IC50 (HEPG2TOX_HILL_SLOPE 17.5, HEPG2TOX_R_SQUARED 0.943, PBLUC_HILL_SLOPE 16.3, PBLUC_R_SQUARED 0.0531, read-out: LUCIFERASE INFECTION ASSAY - IC50): 8.7 µM
2 | S=C(NCc1ccccc1Cl)NC12CC3CC(CC(C3)C1)C2 | > 9.85 µM |  | IC50 (HEPG2TOX_HILL_SLOPE 5.09, HEPG2TOX_R_SQUARED 0.92, PBLUC_HILL_SLOPE 1.78, PBLUC_R_SQUARED 0.451, read-out: LUCIFERASE INFECTION ASSAY - IC50): 7.44 µM
3 | CCN(Cc1ccc2c(c1)OCO2)C(=O)/C=C/c1c(C)nc2sc(C)cn12 | > 10 µM |  | IC50 (PBLUC_HILL_SLOPE 2.08, PBLUC_R_SQUARED 0.691, read-out: LUCIFERASE INFECTION ASSAY - IC50): 8.61 µM
4 | CCCNC(=O)C1(C)CCCN(C(=O)c2cccc(OC(C)=O)c2C)C1 (stereo not drawn) | > 9.16 µM | > 9.16 µM | 
5 | O=[N+]([O-])c1cccc(-c2csc(-n3nccc3C(F)(F)F)n2)c1 | > 10 µM | > 10 µM | 
6 | CN1CCN(c2ccccc2NC(=O)c2cccc(Oc3ccccc3)c2)CC1 | 5.25 µM |  | IC50 (PBLUC_HILL_SLOPE 1.09, PBLUC_R_SQUARED 0.715, read-out: LUCIFERASE INFECTION ASSAY - IC50): 0.704 µM
7 | Cc1ccc(-c2cnn3c(N4CCCC4)cc(C)nc23)cc1 | 9.26 µM |  | IC50 (PBLUC_HILL_SLOPE 2.02, PBLUC_R_SQUARED 0.442, read-out: LUCIFERASE INFECTION ASSAY - IC50): 3.13 µM
8 | CNC(=O)NC(=O)c1sc(SC)c(-c2ccon2)c1C | > 10.6 µM | > 10.6 µM | 
9 | O=c1c(Cl)c2oc3ccccc3nc-2c2ccccc12 | > 11.7 µM |  | IC50 (HEPG2TOX_HILL_SLOPE 6.69, HEPG2TOX_R_SQUARED 0.668, PBLUC_HILL_SLOPE 2.65, PBLUC_R_SQUARED 0.745, read-out: LUCIFERASE INFECTION ASSAY - IC50): 5.79 µM
10 | C[C@]12CC[C@@H]3c4ccc(O)cc4CC[C@H]3[C@@H]1CC[C@@H]2O [ESTRADIOL] | 9.85 µM | 5.43 µM | 
11 | COc1ccc(-c2cc(NS(=O)(=O)c3cccc(F)c3)n(-c3ccc(Cl)c(Cl)c3)n2)cc1 | > 6.7 µM |  | IC50 (HEPG2TOX_HILL_SLOPE 1.65, HEPG2TOX_R_SQUARED 0.946, PBLUC_HILL_SLOPE 2.05, PBLUC_R_SQUARED 0.116, read-out: LUCIFERASE INFECTION ASSAY - IC50): 2.95 µM
12 | CC(=O)c1cccc(-c2cnc3cnc(-c4ccccc4)cn23)c1 | > 10.5 µM |  | IC50 (PBLUC_HILL_SLOPE 2.79, PBLUC_R_SQUARED 0.249, read-out: LUCIFERASE INFECTION ASSAY - IC50): 9.07 µM
13 | CN(Cc1nc2ccccc2[nH]1)c1nccc(C(F)(F)F)n1 | > 10 µM | > 10 µM | 
14 | CCC(C)(C)NC(=O)CSC(c1ccc(F)cc1)c1ccc(F)cc1 | > 10 µM | > 10 µM | 
15 | Cc1nc2ccccn2c1C(=O)NCc1cccc(OC(F)(F)F)c1 | > 9.45 µM |  | IC50 (PBLUC_HILL_SLOPE 18.2, PBLUC_R_SQUARED 0.0314, read-out: LUCIFERASE INFECTION ASSAY - IC50): 8.72 µM
16 | CN(C)c1ccc(-c2cnn3c(Nc4ccc(Oc5ccccc5)cc4)ccnc23)cc1 | > 7.83 µM |  | IC50 (PBLUC_HILL_SLOPE 2.36, PBLUC_R_SQUARED 0.164, read-out: LUCIFERASE INFECTION ASSAY - IC50): 6.65 µM
17 | COc1ccc(-c2cnn3ccc(Nc4ccc(OC)nc4)nc23)c(OC)c1 | 3.63 µM |  | IC50 (HEPG2TOX_HILL_SLOPE 6.09, HEPG2TOX_R_SQUARED 0.857, PBLUC_HILL_SLOPE 12.3, PBLUC_R_SQUARED 0.558, read-out: LUCIFERASE INFECTION ASSAY - IC50): 3.03 µM

Row | Structure (SMILES) | IC90 | IC50 [1] | other results
18 | NNc1nn2c(=O)c3c(-c4ccccc4)csc3nc2c2ccccc12 | > 10 µM |  | IC50 (FFLUC_HILL_SLOPE 12, FFLUC_R_SQUARED 0.305, PBLUC_HILL_SLOPE 10.1, PBLUC_R_SQUARED 0.389, read-out: LUCIFERASE INFECTION ASSAY - IC50): 8.61 µM
19 | Cc1c(/C=N/NC(=O)c2ccccc2)c(Cl)n(C)c(=O)c1C#N | > 10 µM | > 10 µM | 
20 | CC(C)(C)c1csc(NC(=O)c2ccc(Br)cc2)n1 | 8.74 µM |  | IC50 (HEPG2TOX_HILL_SLOPE 15.1, HEPG2TOX_R_SQUARED 0.819, PBLUC_HILL_SLOPE 4.4, PBLUC_R_SQUARED 0.25, read-out: LUCIFERASE INFECTION ASSAY - IC50): 5.3 µM
21 | CC(=O)Nc1ccc2c(Cn3ncc(Cl)c(Cl)c3=O)cc(=O)oc2c1 | 9.76 µM |  | IC50 (HEPG2TOX_HILL_SLOPE 3.1, HEPG2TOX_R_SQUARED 0.966, PBLUC_HILL_SLOPE 14.3, 0.748, PBLUC_R_SQUARED 0.481, 0.667, read-out: LUCIFERASE INFECTION ASSAY - IC50): 5.45 µM
22 | Cc1ccc(-c2nnc(SCC(=O)c3c(N)n(C)c(=O)n(C)c3=O)nc2-c2ccc(C)cc2)cc1 | > 10 µM |  | IC50 (FFLUC_HILL_SLOPE 1.03, FFLUC_R_SQUARED 0.511, read-out: LUCIFERASE INFECTION ASSAY - IC50): > 10 µM
23 | N#C/C(=C\c1ccc(OC(=O)c2cccnc2)cc1)c1nnc2n1CCCCC2 | > 10 µM | > 10 µM | 
24 | COc1ccc(-c2ccc3c(c2)COC2(CCN(C(=O)c4ccc(F)cc4F)CC2)O3)cc1OC | > 6.85 µM | > 6.85 µM | 
25 | Cc1cc2oc(=O)cc(CN3CCC(c4c[nH]c5ccccc45)CC3)c2cc1C | > 10 µM |  | IC50 (FFLUC_HILL_SLOPE 22.3, FFLUC_R_SQUARED 0.464, read-out: LUCIFERASE INFECTION ASSAY - IC50): > 10 µM
26 | COc1cc(C(=O)NNC(=O)c2nn(-c3ccccc3)cc2O)cc(OC)c1OC | > 10 µM |  | IC50 (HEPG2TOX_HILL_SLOPE 4.57, HEPG2TOX_R_SQUARED 0.844, PBLUC_HILL_SLOPE 7.94, PBLUC_R_SQUARED 0.6, read-out: LUCIFERASE INFECTION ASSAY - IC50): 8.48 µM
27 | O=C(c1ccco1)N1CCN(c2nc(-c3ccsc3)nc3ccccc23)CC1 | > 10 µM |  | IC50 (PBLUC_HILL_SLOPE 3.55, PBLUC_R_SQUARED 0.0384, read-out: LUCIFERASE INFECTION ASSAY - IC50): 7.3 µM
28 | C=CCNc1nc2cc(-c3ccccc3C)sc2c(=O)n1C | > 10.6 µM |  | IC50 (HEPG2TOX_HILL_SLOPE 8.49, HEPG2TOX_R_SQUARED 0.617, read-out: LUCIFERASE INFECTION ASSAY - IC50): > 10.6 µM
29 | CC(Nc1ncnc2sccc12)c1ccc(-n2cncn2)cc1 (stereo not drawn) | > 10 µM |  | IC50 (HEPG2TOX_HILL_SLOPE 0.68, HEPG2TOX_R_SQUARED 0.808, PBLUC_HILL_SLOPE 0.888, PBLUC_R_SQUARED 0.682, read-out: LUCIFERASE INFECTION ASSAY - IC50): 1.95 µM
30 | COc1cccc(CC(=O)N2CCCC(C(=O)NCC3CC3)C2)c1 (stereo not drawn) | > 10 µM | > 10 µM | 
31 | COc1cc(NS(=O)(=O)c2ccc3ccccc3c2)c(OC)cc1Cl | 4.48 µM | 2.78 µM | 
32 | O=C(NCCc1nc(-c2ccccc2)no1)c1cc2cc(Cl)ccc2o1 | > 8.97 µM |  | IC50 (PBLUC_HILL_SLOPE 0.5, PBLUC_R_SQUARED 0.259, read-out: LUCIFERASE INFECTION ASSAY - IC50): > 8.97 µM
33 | COc1cc(OC)cc(-c2cnc3cnc(-c4cccc(C)c4C)cn23)c1 | 8.63 µM |  | IC50 (HEPG2TOX_HILL_SLOPE 2.52, HEPG2TOX_R_SQUARED 0.881, PBLUC_HILL_SLOPE 5.04, PBLUC_R_SQUARED 0.463, read-out: LUCIFERASE INFECTION ASSAY - IC50): 5.58 µM
34 | c1ccc(-c2csc3nc(CN4CCOCC4)nc(NCc4cnn(-c5ccccc5)c4)c23)cc1 | > 10 µM | > 10 µM | 
